Laboratory results taken from US10674728B2, “Pesticidal compositions” (SYNGENTA PARTICIPATIONS AG, priority 2016, dated 2020).

Assays:
Rhizoctonia solani = assay: Tests against Rhizoctonia solani (foot rot, damping-off), growth inhibition in microtiter plate; format: cell-based; conditions: 72 hrs, 24° C., read-out: Observed % activity
Pyricularia orzyae = assay: microbe, parasite or virus in culture; format: cell-based; conditions: 72 h, read-out: Observed % activity
[1] = test system: Glomerella lagenarium syn. Colletotrichum lagenarium; assay: Tests against Glomerella lagenarium (anthracnose of cucurbits), growth inhibition in microtiter plate; format: cell-based; conditions: Colletotrichum orbiculare, 72 hrs, 24° C., read-out: Observed % activity
[2] = test system: Rice (Oryza sativa L.) of the local variety ADT45; assay: Heat stress mitigation field trials in rice, grain yield; format: in vivo; conditions: 10 gAl/Ha, foliar spray at panicle formation (BBCH 32), hot season
Method: Tests were conducted to determine the heat stress mitigation efficacy of compositions of the present invention.
Trials were conducted in the Tamil Nadu rice production area (India) during the hot season in 2016.
Rice (Oryza sativa L.) of the local variety ADT45 was mechanically transplanted at four plants per hill with a plant spacing of 16 cm and a row spacing of 30 cm. All trials were performed in good level of water management. Fertilizer was applied in accordance with the best local practice across the trial area.
Commercial treated seeds (no neonicotinoids as seed treatments) were used. Weed control was according to the best local practice in order to provide excellent weed control. Foliar fungicides and insecticides were applied according to common practice (no products that contain neonicotinoids or strobilurins).
The trial design was a randomized bloc design. Plot size was 40 m^2 (4 m width [12 rows] by 10 m row length). Each trial had four replicates. In total, eleven trials were conducted.
Treatments were applied with small-plot hand-held boom sprayer as broadcast foliar spray in close proximity to leaf/canopy surface (25-40 cm distance from the crop), at the following different treatment timings: panicle initiation (BBCH 30), panicle formation (BBCH 32), spikelet differentiation (BBCH 35) and meiosis (BBCH 39).

[3] = (A) Formula (Ia) 10.0 ppm alone

| Structure (SMILES) | inhibition at 2 ppm (Rhizoctonia solani; (B) Difenoconazole 2.0 ppm alone) | inhibition at 0.0625 ppm (Pyricularia orzyae) | inhibition at 0.25 ppm (Pyricularia orzyae) | inhibition at 0.25 ppm ([1]; (B) Difenoconazole 0.25 ppm alone) | inhibition at 5 ppm (Rhizoctonia solani; (A) Formula (Ia) 5.0 ppm alone, inhibition of growth, photometric) | inhibition at 10 ppm (Rhizoctonia solani; [3]) | inhibition at 20 ppm (Rhizoctonia solani; (A) Formula (Ia) 20.0 ppm alone) | inhibition at 0.1563 ppm (Pyricularia orzyae) | inhibition at 10 ppm (Pyricularia orzyae) | inhibition at 0.625 ppm ([1]; (A) Formula (Ia) 0.6250 ppm alone, inhibition of growth, photometric at 620 nm) | inhibition at 1.25 ppm ([1]; (A) Formula (Ia) 1.25 ppm alone) | inhibition at 2.5 ppm ([1]; (A) Formula (Ia) 2.5 ppm alone) | inhibition at 5 ppm ([1]; (A) Formula (Ia) 5.0 ppm alone) | inhibition at 10 ppm [1, 3] | Average yield increase compared to UTC [2] | Yield at 14% MC [2] |
| --- | --- | --- | --- | --- | --- | --- | --- | --- | --- | --- | --- | --- | --- | --- | --- | --- |
| CC1COC(Cn2cncn2)(c2ccc(Oc3ccc(Cl)cc3)cc2Cl)O1 (stereo not shown) [Difenoconazole, difenoconazole, reference compound] | 47% | 34% | 71% | 36% | – | – | – | – | – | – | – | – | – | – | – | – |
| COc1cccc(Nc2nc(F)nc3[nH]cnc23)c1 [Formula (Ia)] | – | – | – | – | 7% | 0% | 0% | 0% | 3% | 5% | 0% | 2% | 0% | 0% | 4.4% | 6820 kg/ha |
